Assay: Compatibility test of silodosin with polymer-based materials
Format: physicochemical
Conditions: silodosin:material 1:1 by mass, 40° C., 75% relative humidity, 4 weeks, visual examination
Description: Silodosin and a variety of polymer-based materials were mixed in the mass ratio of 1:1. The mixtures were stored at 40° C. under 75% relative humidity for 4 weeks, and the changes on blending, i.e. incompatibility, were checked. Degradation products were quantified by a liquid chromatography method and a degree of discoloration was checked by visual examination.
Samples equivalent to 20 mg of silodosin were weighed, and test solutions were prepared and analyzed by the liquid chromatography method. Each peak area was measured by an automatic integration method and a content rate of degradation product (KMD-3241) (%) was calculated by an area percentage method.
Detector: Ultraviolet Absorption Photometer (Wavelength: 225 nm)

Color change (fading): −
Structure (SMILES): C[C@H](Cc1cc2c(c(C(N)=O)c1)N(CCCO)CC2)NCCOc1ccccc1OCC(F)(F)F [Silodosin (reference), Silodosin]

Reference: patent publication US20160045446A1, “ORAL ADMINISTRATION PREPARATION WITH MASKED BITTERNESS OF SILODOSIN” (KISSEI PHARMACEUTICAL CO., LTD., priority 2013, published 2016)
